In patent publication US6784167B2, “17-beta-hydroxysteroid dehydrogenase-II inhibitors” (Bayer Pharmaceuticals Corporation, priority 2000, dated 2004):

With `CN1C(=O)CC(c2ccccc2)C1C(O)c1ccc(Sc2ccc(Cl)cc2)s1` (centres unmarked) [Example 60] the melting point was 174 to 176 °C. For `CN1C(=O)C[C@H](c2ccccc2F)[C@@H]1[C@H](O)c1ccc(-c2cccnc2)s1.Cl` [Example 152], the melting point was 180 to 182 °C. In the case of `COc1cc(-c2ccc(C(O)C3C(c4ccccc4)CC(=O)N3C)s2)cc(OC)c1OC` (centres unmarked) [Example 49], the melting point is reported as 190 °C (dec.). For `CO[C@H](c1cccc(-c2ccccc2)c1)[C@H]1[C@@H](c2ccccc2)CC(=O)N1C` [Example 143], the melting point was 136 °C. `CN1C(=O)CC(c2ccccc2)C1C(O)c1ccc(-c2ccccc2)cc1` (centres unmarked) [Example 93] showed a melting point of 202 °C. For `CN1C(=O)CC(c2ccccc2)C1C(O)c1cc(-c2ccccc2)cs1` (centres unmarked) [Example 42], the melting point was 165 °C. For `CN1C(=O)CC(c2ccccc2)C1C(O)c1ccc(Cc2ccc(F)cc2)s1` (centres unmarked) [Example 59], the melting point was 155 to 157 °C. `Cc1ccc(-c2ccc(C(O)C3C(c4ccccc4)CC(=O)N3C)s2)nc1` (centres unmarked) [Example 27] gave a melting point of 173 °C. For `CN1C(=O)C[C@@H]2c3ccccc3[C@@](O)(c3ccc(-c4ccccc4)s3)[C@@H]21` (relative stereo) [Example 24, (±)-(8S*,3aR*,8aR*)-8-hydroxy-1-methyl-8-(5-phenyl(2-thienyl))indano[2,1-b]pyrrolidin-2-one], the melting point was 178 to 180 °C. In the case of `CN1C(=O)CC(c2ccc(N)cc2)C1C(O)c1ccc(-c2ccc(F)cc2)s1` (centres unmarked) [Example 86], the melting point is reported as 209 °C. With `COc1ccc2oc(C(O)C3C(c4ccccc4)CC(=O)N3C)cc2c1` (centres unmarked) [Example 113] the melting point was 180 to 182 °C. For `CN1C(=O)C[C@H](c2ccccc2)[C@@H]1[C@H](O)c1ccc(-c2ccc(F)cc2)s1` (relative stereo) [Example 3a, (±)-(4R*,5R*)-5-{(1S*) [5-(4-fluorophenyl)(2-thienyl)]hydroxymethyl}-1-methyl-4-phenylpyrrolidin-2-one], the melting point was 110 °C (dec.). Work on `CN1C(=O)C[C@H](c2ccccc2)[C@@H]1[C@H](O)/C=C/c1ccc(F)cc1` (relative stereo) [Example 15, (±)-(4R*,5R*)-5-[(2E)(1R*)-3-(4-fluorophenyl)-1-hydroxyprop-2-enyl]-1-methyl-4-phenylpyrrolidin-2-one] yielded a melting point of 189 to 191 °C. In the case of `CN1C(=O)CC(c2ccccc2)C1C(O)c1ccc(C(=O)c2ccc(F)cc2)s1` (centres unmarked) [Example 65], the melting point is reported as 229 to 232 °C (dec.). Work on `CN1C(=O)CC(c2ccccc2)C1C(O)c1ccc(-c2ccc(F)cc2)cc1` (centres unmarked) [Example 111] yielded a melting point of 117 °C. With `COc1ccc(C2CC(=O)N(C)C2C(O)c2ccc(-c3ccccc3)s2)cc1` (centres unmarked) [Example 82] the melting point was 215 °C. For `CN1C(=O)C[C@H](c2ccccc2)[C@@H]1[C@H](O)c1ccc(-c2ccc(F)c(Cl)c2)s1` (relative stereo) [Example 5, (±)-(4R*,5R*)-5-{(1S*)[5-(3-chloro-4-fluorophenyl)(2-thienyl)]hydroxymethyl}-1-methyl-4-phenylpyrrolidin-2-one], the melting point was 194 °C. Work on `CN1C(=O)C[C@H](c2ccccc2)[C@@H]1[C@H](O)c1ccc(C(=O)Nc2ccccc2)s1` (relative stereo) [Example 4, (±)-5-[(1S*)(5-(N-phenylcarbamoyl)(2-thienyl))hydroxymethyl](4R*,5R*)-1-methyl-4-phenylpyrrolidin-2-one] yielded a melting point of 223 to 227 °C. With `CSc1nccc(-c2ccc(C(O)C3C(c4ccccc4)CC(=O)N3C)s2)n1` (centres unmarked) [Example 77] the melting point was 195 °C. Work on `Cc1ccc(C(O)C2C(c3ccccc3)CC(=O)N2C)cc1` (centres unmarked) [Example 95] yielded a melting point of 129 to 131 °C. Work on `COc1cccc(C(O)C2C(c3ccccc3)CC(=O)N2C)c1` (centres unmarked) [Example 97] yielded a melting point of 160 to 161 °C. For `CN1C(=O)CC(c2ccccc2)C1C(O)c1cccc(-c2ccc(O)cc2)c1` (centres unmarked) [Example 110], the melting point was 230 °C. With `CN1C(=O)CC(c2ccccc2)C1C(O)c1cc2ccccc2s1` (centres unmarked) [Example 41] the melting point was 195 °C (dec.). Work on `CN1C(=O)CC(c2ccccc2)C1C(O)c1ccc(-c2ccc(F)cc2)o1` (centres unmarked) [Example 114] yielded a melting point of 168 °C. For `CN1C(=O)CC(c2ccccc2)C1C(O)c1ccc(C=Cc2ccc(F)cc2)s1` (centres unmarked) [Example 56], the melting point was 194 to 195 °C (dec.). Compound `CN1C(=O)CC(c2ccccc2)C1C(O)c1cccc(-c2cccc(N)c2)c1` (centres unmarked) [Example 105] has a melting point of 130 °C. For `CN1C(=O)C[C@H](c2ccccc2)[C@@H]1[C@H](F)c1ccc(-c2ccc(F)cc2)s1` [Example 144], the melting point was 121 to 123 °C. Compound `CN1C(=O)CC(c2ccccc2)C1C(O)c1ccc(-c2cccc3ccccc23)s1` (centres unmarked) [Example 45] has a melting point of 160 °C. Compound `CC(=O)Nc1cccc(-c2ccc(C(O)C3C(c4ccccc4)CC(=O)N3C)s2)c1` (centres unmarked) [Example 48] has a melting point of 97 °C. For `COc1cccc(-c2cccc(C(O)C3C(c4ccccc4)CC(=O)N3C)c2)c1` (centres unmarked) [Example 107], the melting point was 183 °C. For `CN1C(=O)CC(c2ccccc2)C1C(O)c1ccc(-c2c(F)cc(F)cc2F)s1` (centres unmarked) [Example 75], the melting point was 95 °C. In the case of `CN1C(=O)CC(c2ccccc2)C1C(O)c1ccc(-c2cccc(F)c2)s1` (centres unmarked) [Example 46], the melting point is reported as 180 °C. `Cc1cccc([C@@H](O)[C@H]2[C@@H](c3ccccc3)CC(=O)N2C)c1` (relative stereo) [Example 7, (±)-(4R*,5R*)-5-[(1R*)hydroxy(3-methylphenyl)methyl]-1-methyl-4-phenylpyrrolidin-2-one] gave a melting point of 163 to 165 °C. In the case of `CN1C(=O)CC(c2ccccc2)C1C(O)c1cccc(C(F)(F)F)c1` (centres unmarked) [Example 96], the melting point is reported as 155 to 158 °C. For `CN1C(=O)CC(c2ccccc2)C1C(O)c1ccc(-c2ccc3ccccc3n2)s1` (centres unmarked) [Example 40], the melting point was 225 to 228 °C. In the case of `CN1C(=O)CC(c2ccccc2)C1C(O)c1cccc(-c2cccc(F)c2)c1` (centres unmarked) [Example 103], the melting point is reported as 187 °C. Compound `CC(=O)Nc1cccc(-c2cccc(C(O)C3C(c4ccccc4)CC(=O)N3C)c2)c1` (centres unmarked) [Example 102] has a melting point of 150 °C. In the case of `CC(=O)O[C@H](c1ccc(-c2ccc(F)cc2)s1)[C@H]1[C@@H](c2ccccc2)CC(=O)N1C` (relative stereo) [Example 13, (±)-(4R*,5R*)5-{(1S*)[5-(4-fluorophenyl)(2-thienyl)]acetyloxymethyl}-1-methyl4-phenylpyrrolidin-2-one], the melting point is reported as 75 °C. For `CN1C(=O)CC(c2ccccc2)C1C(O)c1ccc(C(=O)c2ccccc2)s1` (centres unmarked) [Example 63], the melting point was 202 °C (dec.). Compound `CN(C)c1ccc(C(O)C2C(c3ccccc3)CC(=O)N2C)cc1` (centres unmarked) [Example 101] has a melting point of 182 to 185 °C. With `CN1C(=O)C[C@H](c2ccccc2)[C@@H]1[C@H](O)CCc1ccc(F)cc1` (relative stereo) [Example 16, (±)-5-[(1R*)-3-(4-fluorophenyl)-1-hydroxypropyl](4R*,5R*)-1-methyl-4-phenylpyrrolidin-2-one] the melting point was 122 to 124 °C. In the case of `CN1C(=O)CC(c2ccccc2)C1C(O)C#Cc1cccc(O)c1` (centres unmarked) [Example 132], the melting point is reported as 210 to 211 °C. With `COc1ccc(-c2ccc(C(O)C3C(c4ccccc4)CC(=O)N3C)s2)cc1` (centres unmarked) [Example 39] the melting point was 168 to 170 °C. `COc1ccc(C(O)C2C(c3ccccc3)CC(=O)N2C)cc1` (centres unmarked) [Example 100] gave a melting point of 154 to 157 °C. Compound `CN1C(=O)CC(c2ccccc2)C1C(O)c1ccc2c(c1)OCO2` (centres unmarked) [Example 108] has a melting point of 211 °C. For `CN1C(=O)CC(c2ccccc2)C1C(O)c1ccc(-c2cccc(C(=O)O)c2)s1` (centres unmarked) [Example 33], the melting point was 231 °C. For `CN1C(=O)CC(c2ccccc2)C1C(O)c1ccc(-c2cccc(N)c2)o1` (centres unmarked) [Example 119], the melting point was 98 °C. Compound `CN1C(=O)CC(c2ccccc2)C1C(O)c1cc2ccccc2o1` (centres unmarked) [Example 112] has a melting point of 120 to 122 °C. In the case of `CN1C(=O)C[C@H](c2ccccc2)[C@@H]1[C@H](O)c1ccc(-c2cccnc2)s1` (relative stereo) [Example 3b, (4R,5R)-5-{(1S)-hydroxy[5-(3-pyridinyl)-2-thienyl]methyl}-1-methyl-4-phenyl-2-pyrrolidinone], the melting point is reported as 232 °C. Work on `Cc1ccc([C@@H](O)[C@H]2[C@@H](c3ccccc3)CC(=O)N2C)s1` (relative stereo) [Example 6, (±)-(4R*,5R*)-5-[(1S*)-hydroxy(5-methyl(2-thienyl))methyl]-1-methyl-4-phenylpyrrolidin-2-one] yielded a melting point of 185 to 188 °C.
